Test results reported in patent US7396837B2, “Antitumoral analogs of lamellarins” (Pharma Mar, S.A.U., priority 2002, dated 2008).

Tests used:
Type in all cases: cell-based
LoVo = test: SRB colorimetric cell growth inhibition assay, LoVo; settings: Homo sapiens, LoVo; for GI50: GI=growth inhibition, read-out: GI50 LOVO; for CC50: cell killing (cytotoxic effect), read-out: LC50 LOVO; for IC (TGI): total growth inhibition (cytostatic effect), read-out: TGI LOVO
How it was run: (§1)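 In this cytotoxicity screen, compound stays in contact with the cultured human cancer cells without washout; sulforhodamine B binding gives the measure of cell number, and endpoints separate growth inhibition from cytostasis (TGI) and killing (LC).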

IGROV = test: SRB colorimetric cell growth inhibition assay, IGROV; settings: Homo sapiens, IGROV; for GI50: GI=growth inhibition, read-out: GI50 IGROV; for CC50: LC=cell killing (cytotoxic effect), read-out: LC50 IGROV; for IC (TGI): TGI=total growth inhibition (cytostatic effect), read-out: TGI IGROV
How it was run: as §1

H-MEC-1 = test: SRB colorimetric cell growth inhibition assay, H-MEC-1; settings: Homo sapiens, HMEC-1, H-MEC-1; for GI50: GI=growth inhibition; for IC (TGI): TGI=total growth inhibition (cytostatic effect), read-out: TGI H-MEC-1
How it was run: (§2)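 Growth and viability quantified by sulforhodamine B staining in 96-well microplates. Triplicate wells give mean ± SD; derived endpoints are GI, TGI (cytostatic) and LC (cytotoxic).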

[1] = as above; settings: human, H-MEC-1 cells, H-MEC-1; LC=cell killing (cytotoxic effect); read-out: LC50 H-MEC-1
How it was run: as §2

K-562 = test: SRB colorimetric cell growth inhibition assay, K-562; settings: Homo sapiens, K562, K-562; for GI50: GI=growth inhibition, read-out: GI50 K-562; for CC50: cell killing (cytotoxic effect), read-out: LC50 K-562; for IC (TGI): total growth inhibition (cytostatic effect), read-out: TGI K-562
How it was run: as §1

LoVo-Dox = test: SRB colorimetric cell growth inhibition assay, LoVo-Dox (MDR); settings: Homo sapiens, LOVO-DOX; for GI50: GI=growth inhibition, read-out: GI50 LOVO-DOX; for CC50: cell killing (cytotoxic effect), read-out: LC50 LOVO-DOX; for IC (TGI): total growth inhibition (cytostatic effect), read-out: TGI LOVO-DOX
How it was run: as §1

DU-145 = test: SRB colorimetric cell growth inhibition assay, DU-145; settings: Homo sapiens, DU-145, DU-145; for GI50: GI=growth inhibition, read-out: GI50 DU-145; for CC50: LC=cell killing (cytotoxic effect), read-out: LC50 DU-145; for IC (TGI): TGI=total growth inhibition (cytostatic effect), read-out: TGI DU-145
How it was run: as §1

SKOV-3 = test: SRB colorimetric cell growth inhibition assay, SKOV-3; settings: Homo sapiens; for GI50: SK-OV-3, SKOV-3, GI=growth inhibition, read-out: GI50 SKOV-3; for CC50 / IC (TGI): SK-OV-3, SKOV-3; for CC50: LC=cell killing (cytotoxic effect), read-out: LC50 SKOV-3; for IC (TGI): TGI=total growth inhibition (cytostatic effect), read-out: TGI SKOV-3
How it was run: as §2

SK-MEL-28 = test: SRB colorimetric cell growth inhibition assay, SK-MEL-28; settings: Homo sapiens, SK-MEL-28, MEL-28; for GI50: GI=growth inhibition, read-out: GI50 MEL-28; for CC50: LC=cell killing (cytotoxic effect), read-out: LC50 MEL-28; for IC (TGI): TGI=total growth inhibition (cytostatic effect), read-out: TGI MEL-28
How it was run: as §1

SK-BR-3 = test: SRB colorimetric cell growth inhibition assay, SK-BR-3; settings: Homo sapiens, SK-BR-3, SK-BR-3; for GI50: GI=growth inhibition, read-out: GI50 SK-BR-3; for CC50: LC=cell killing (cytotoxic effect), read-out: LC50 SK-BR-3; for IC (TGI): TGI=total growth inhibition (cytostatic effect), read-out: TGI SK-BR-3
How it was run: as §1

HT-29 = test: SRB colorimetric cell growth inhibition assay, HT-29; settings: Homo sapiens, HT-29, HT-29; for GI50: GI=growth inhibition, read-out: GI50 HT-29; for CC50: cell killing (cytotoxic effect), read-out: LC50 HT-29; for IC (TGI): total growth inhibition (cytostatic effect), read-out: TGI HT-29
How it was run: as §1

PANC-1 = test: SRB colorimetric cell growth inhibition assay, PANC-1; settings: Homo sapiens, PANC-1, PANC-1; for GI50: GI=growth inhibition, read-out: GI50 PANC-1; for CC50: cell killing (cytotoxic effect), read-out: LC50 PANC-1; for IC (TGI): total growth inhibition (cytostatic effect), read-out: TGI PANC-1
How it was run: as §1

IGROV-ET = test: SRB colorimetric cell growth inhibition assay, IGROV-ET (ET-743 resistant); settings: Homo sapiens, IGROV-ET; for GI50: GI=growth inhibition, read-out: GI50 IGROV-ET; for CC50: LC=cell killing (cytotoxic effect), read-out: LC50 IGROV-ET; for IC (TGI): TGI=total growth inhibition (cytostatic effect), read-out: TGI IGROV-ET
How it was run: as §1

A-549 = test: SRB colorimetric cell growth inhibition assay, A-549; settings: Homo sapiens, A549, A-549; for GI50: GI=growth inhibition, read-out: GI50 A-549; for CC50: cell killing (cytotoxic effect), read-out: LC50 A-549; for IC (TGI): total growth inhibition (cytostatic effect), read-out: TGI A-549
How it was run: as §1

LNCaP = test: SRB colorimetric cell growth inhibition assay, LNCaP; settings: Homo sapiens, LNCaP, LN-caP; for GI50: GI=growth inhibition, read-out: GI50 LN-caP; for CC50: LC=cell killing (cytotoxic effect), read-out: LC50 LN-caP; for IC (TGI): TGI=total growth inhibition (cytostatic effect), read-out: TGI LN-caP
How it was run: as §1

COc1cc(-c2c3n(c4c(=O)oc5cc(OC(=O)[C@@H](N)Cc6ccccc6)c(OC)cc5c24)CCc2cc(OC(=O)[C@@H](N)Cc4ccccc4)c(OC)cc2-3)ccc1OC(=O)[C@@H](N)Cc1ccccc1 [Compound 115]
GI50 (LoVo): 703 nM
CC50 (LoVo): 4410 nM
IC (TGI) (LoVo): 1820 nM
GI50 (IGROV): 1070 nM
CC50 (IGROV): 6260 nM
IC (TGI) (IGROV): 2580 nM
GI50 (H-MEC-1): 213 nM
IC (TGI) (H-MEC-1): 452 nM
CC50 [1]: 2960 nM
GI50 (K-562): 536 nM
CC50 (K-562): 7780 nM
IC (TGI) (K-562): 2470 nM
GI50 (LoVo-Dox): 1760 nM
CC50 (LoVo-Dox): 7780 nM
IC (TGI) (LoVo-Dox): 4780 nM
GI50 (DU-145): 1630 nM
CC50 (DU-145): 7780 nM
IC (TGI) (DU-145): 4290 nM
GI50 (SKOV-3): 1100 nM
CC50 (SKOV-3): 5130 nM
IC (TGI) (SKOV-3): 2380 nM
GI50 (SK-MEL-28): 1450 nM
CC50 (SK-MEL-28): 4830 nM
IC (TGI) (SK-MEL-28): 2650 nM
GI50 (SK-BR-3): 1870 nM
CC50 (SK-BR-3): 7530 nM
IC (TGI) (SK-BR-3): 3750 nM
GI50 (HT-29): 2920 nM
CC50 (HT-29): 7780 nM
IC (TGI) (HT-29): 6460 nM
GI50 (PANC-1): 2470 nM
CC50 (PANC-1): 7780 nM
IC (TGI) (PANC-1): 7780 nM
GI50 (IGROV-ET): 1700 nM
CC50 (IGROV-ET): 7780 nM
IC (TGI) (IGROV-ET): 5380 nM
GI50 (A-549): 1650 nM
CC50 (A-549): 5870 nM
IC (TGI) (A-549): 3110 nM
GI50 (LNCaP): 670 nM
CC50 (LNCaP): 3870 nM
IC (TGI) (LNCaP): 1670 nM

COc1cc(-c2c3n(c4c(=O)oc5cc(OC(=O)[C@@H]6CCCN6)c(OC)cc5c24)CCc2c-3cc(OC)c(OC)c2OC(=O)[C@@H]2CCCN2)ccc1OC(=O)[C@@H]1CCCN1 [Compound 118]
GI50 (LoVo): 1350 nM
CC50 (LoVo): 5430 nM
IC (TGI) (LoVo): 2700 nM
GI50 (IGROV): 970 nM
CC50 (IGROV): 5470 nM
IC (TGI) (IGROV): 2300 nM
GI50 (H-MEC-1): 1450 nM
IC (TGI) (H-MEC-1): 3060 nM
CC50 [1]: 6450 nM
GI50 (K-562): 1170 nM
CC50 (K-562): 6570 nM
IC (TGI) (K-562): 2770 nM
GI50 (LoVo-Dox): 450 nM
CC50 (LoVo-Dox): 3860 nM
IC (TGI) (LoVo-Dox): 1300 nM
GI50 (DU-145): 1600 nM
CC50 (DU-145): 5640 nM
IC (TGI) (DU-145): 3000 nM
GI50 (SKOV-3): 2020 nM
CC50 (SKOV-3): 8220 nM
IC (TGI) (SKOV-3): 4080 nM
GI50 (SK-MEL-28): 1650 nM
CC50 (SK-MEL-28): 5490 nM
IC (TGI) (SK-MEL-28): 3000 nM
GI50 (SK-BR-3): 639 nM
CC50 (SK-BR-3): 6250 nM
IC (TGI) (SK-BR-3): 2040 nM
GI50 (HT-29): 1920 nM
CC50 (HT-29): 6590 nM
IC (TGI) (HT-29): 3560 nM
GI50 (PANC-1): 1080 nM
CC50 (PANC-1): 5350 nM
IC (TGI) (PANC-1): 2400 nM
GI50 (IGROV-ET): 876 nM
CC50 (IGROV-ET): 6170 nM
IC (TGI) (IGROV-ET): 2330 nM
GI50 (A-549): 1800 nM
CC50 (A-549): 6990 nM
IC (TGI) (A-549): 3550 nM
GI50 (LNCaP): 987 nM
CC50 (LNCaP): 4760 nM
IC (TGI) (LNCaP): 2160 nM
